Assays:
Format in all cases: physicochemical
[1] = DVS (dynamic vapor sorption) characterization
Description: DVS refers to dynamic vapor sorption: The measurement was conducted with a Surface Measurement Systems advantage 2 at 25° C., starting from 50% humidity in humidity range of 0%-95% with a step size of 10%. The judging criterion was that the mass change of each gradient dM/dT is less than 0.002 and TMAX is less than 360 min in two circles.

[2] = Influencing factor study of crystalline form α of hydrochloride and crystalline form I of hydrobromide
Description: Sample of the crystalline form α of the hydrochloride and the crystalline form I of the hydrobromide of the compound of formula II were let stand open to examine the stability of the samples in conditions of illumination (4500 Lux), high temperature (40° C. and 60° C.) and high humidity (RH 75% and RH 92.5%) in a period of 30 days.

[3] = Long-term/accelerated stability study of crystalline form α of hydrochloride and crystalline form I of hydrobromide
Description: The crystalline form α of the hydrochloride of the compound of formula II was let stand in conditions of 25° C./60% RH and 40° C./75% RH to examine its stability.
The crystalline form I of the hydrobromide of the compound of formula II was let stand in conditions of 25° C./60% RH and 40° C./75% RH to examine its stability.

Q: Which results are given for Cl.NC(=O)C[C@H](c1ccc(S(=O)(=O)CC2CC2)cc1)c1nc2cc(-c3ccccc3OC(F)F)c(Cl)cc2[nH]1 [Crystalline form α of hydrochloride of compound of formula I]?
A: Crystalline form before and after DVS (XRPD comparison) ([1]; 0-95% humidity change): crystalline form did not change during DVS; DVS weight change ([1]; 25° C., 20.0% RH to 80.0% RH): 0.549%; Hygroscopicity ([1]; DVS, 25° C., 20.0% RH to 80.0% RH): slightly hygroscopic; Vapor sorption ([1]; accelerated test condition, 70% humidity): about 0.574%; Vapor sorption ([1]; extreme condition, 90% humidity): about 1.040%; Vapor sorption ([1]; normal storage condition, 60% humidity/25° C.): about 0.463%; Chiral purity (%) ([2]; 40° C., 7 days): 99.131%; Color and appearance ([2]; 40° C., 7 days): White solid; Crystalline form ([2]; 40° C., 7 days): Not changed; Main peak purity (%) ([2]; 40° C., 7 days): 96.915%; Chiral purity (%) ([2]; 40° C., 14 days): 99.115%; Color and appearance ([2]; 40° C., 14 days): White solid; Crystalline form ([2]; 40° C., 14 days): Not changed; Main peak purity (%) ([2]; 40° C., 14 days): 96.921%; Chiral purity (%) ([2]; 40° C., 30 days): 99.207%; Chloride ion content (%) ([2]; 40° C., 30 days): 5.75%; Color and appearance ([2]; 40° C., 30 days): White solid; Crystalline form ([2]; 40° C., 30 days): Not changed; Main peak purity (%) ([2]; 40° C., 30 days): 96.824%; Chiral purity (%) ([2]; 60° C., 7 days): 99.136%; Color and appearance ([2]; 60° C., 7 days): White solid; Crystalline form ([2]; 60° C., 7 days): Not changed; Main peak purity (%) ([2]; 60° C., 7 days): 96.884%; Chiral purity (%) ([2]; 60° C., 14 days): 99.106%; Color and appearance ([2]; 60° C., 14 days): White solid; Crystalline form ([2]; 60° C., 14 days): Not changed; Main peak purity (%) ([2]; 60° C., 14 days): 96.907%; Chiral purity (%) ([2]; 60° C., 30 days): 99.232%; Chloride ion content (%) ([2]; 60° C., 30 days): 5.65%; Color and appearance ([2]; 60° C., 30 days): White solid; Crystalline form ([2]; 60° C., 30 days): Not changed; Main peak purity (%) ([2]; 60° C., 30 days): 96.814%; Chiral purity (%) ([2]; 75% RH, 7 days): 99.138%; Color and appearance ([2]; 75% RH, 7 days): White solid; Crystalline form ([2]; 75% RH, 7 days): Not changed; Main peak purity (%) ([2]; 75% RH, 7 days): 96.916%; Chiral purity (%) ([2]; 75% RH, 14 days): 99.130%; Color and appearance ([2]; 75% RH, 14 days): White solid; Crystalline form ([2]; 75% RH, 14 days): Not changed; Main peak purity (%) ([2]; 75% RH, 14 days): 96.908%; Chiral purity (%) ([2]; 75% RH, 30 days): 99.220%; Chloride ion content (%) ([2]; 75% RH, 30 days): 5.68%; Color and appearance ([2]; 75% RH, 30 days): White solid; Crystalline form ([2]; 75% RH, 30 days): Not changed; Main peak purity (%) ([2]; 75% RH, 30 days): 96.903%; Chiral purity (%) ([2]; 92.5% RH, 7 days): 99.132%; Color and appearance ([2]; 92.5% RH, 7 days): White solid; Crystalline form ([2]; 92.5% RH, 7 days): Not changed; Main peak purity (%) ([2]; 92.5% RH, 7 days): 96.912%; Chiral purity (%) ([2]; 92.5% RH, 14 days): 99.111%; Color and appearance ([2]; 92.5% RH, 14 days): White solid; Crystalline form ([2]; 92.5% RH, 14 days): Not changed; Main peak purity (%) ([2]; 92.5% RH, 14 days): 96.908%; Chiral purity (%) ([2]; 92.5% RH, 30 days): 99.211%; Chloride ion content (%) ([2]; 92.5% RH, 30 days): 5.67%; Color and appearance ([2]; 92.5% RH, 30 days): White solid; Crystalline form ([2]; 92.5% RH, 30 days): Not changed; Main peak purity (%) ([2]; 92.5% RH, 30 days): 96.880%; Chiral purity (%) ([2]; 4500 Lux, 7 days): 99.137%; Color and appearance ([2]; 4500 Lux, 7 days): White solid; Crystalline form ([2]; 4500 Lux, 7 days): Not changed; Main peak purity (%) ([2]; 4500 Lux, 7 days): 96.911%; Chiral purity (%) ([2]; 4500 Lux, 14 days): 99.139%; Color and appearance ([2]; 4500 Lux, 14 days): White solid; Crystalline form ([2]; 4500 Lux, 14 days): Not changed; Main peak purity (%) ([2]; 4500 Lux, 14 days): 96.911%; Chiral purity (%) ([2]; 4500 Lux, 30 days): 99.216%; Chloride ion content (%) ([2]; 4500 Lux, 30 days): 5.71%; Color and appearance ([2]; 4500 Lux, 30 days): White solid; Crystalline form ([2]; 4500 Lux, 30 days): Not changed; Main peak purity (%) ([2]; 4500 Lux, 30 days): 96.810%; Chiral purity (%) ([2]; Initial, 0 days): 99.14%; Chloride ion content (%) ([2]; Initial, 0 days): 5.75%; Color and appearance ([2]; Initial, 0 days): White solid; Crystalline form ([2]; Initial, 0 days): Crystalline; Main peak purity (%) ([2]; Initial, 0 days): 96.925%; Stability (conclusion of influencing factor study) ([2]; illumination, 40° C. and 60° C., high humidities of 75% and 92.5%): good physical and chemical stabilities; Chiral purity (%) ([3]; 25° C., 60% RH, Day 7): 99.131%; Color and appearance ([3]; 25° C., 60% RH, Day 7): White solid; Crystalline form ([3]; 25° C., 60% RH, Day 7): Not changed; Main peak purity (%) ([3]; 25° C., 60% RH, Day 7): 96.915%; Chiral purity (%) ([3]; 25° C., 60% RH, Day 14): 99.111%; Color and appearance ([3]; 25° C., 60% RH, Day 14): White solid; Crystalline form ([3]; 25° C., 60% RH, Day 14): Not changed; Main peak purity (%) ([3]; 25° C., 60% RH, Day 14): 96.831%; Chiral purity (%) ([3]; 25° C., 60% RH, Month 1): 99.225%; Chloride ion content (%) ([3]; 25° C., 60% RH, Month 1): 5.75%; Color and appearance ([3]; 25° C., 60% RH, Month 1): White solid; Crystalline form ([3]; 25° C., 60% RH, Month 1): Not changed; Main peak purity (%) ([3]; 25° C., 60% RH, Month 1): 96.906%; Chiral purity (%) ([3]; 25° C., 60% RH, Month 2): 99.332%; Chloride ion content (%) ([3]; 25° C., 60% RH, Month 2): 5.74%; Color and appearance ([3]; 25° C., 60% RH, Month 2): White solid; Crystalline form ([3]; 25° C., 60% RH, Month 2): Not changed; Main peak purity (%) ([3]; 25° C., 60% RH, Month 2): 96.883%; Chiral purity (%) ([3]; 25° C., 60% RH, Month 3): 99.239%; Color and appearance ([3]; 25° C., 60% RH, Month 3): White solid; Crystalline form ([3]; 25° C., 60% RH, Month 3): Not changed; Main peak purity (%) ([3]; 25° C., 60% RH, Month 3): 96.749%; Chiral purity (%) ([3]; 25° C., 60% RH, Month 6): 99.187%; Chloride ion content (%) ([3]; 25° C., 60% RH, Month 6): 5.85%; Color and appearance ([3]; 25° C., 60% RH, Month 6): White solid; Crystalline form ([3]; 25° C., 60% RH, Month 6): Not changed; Main peak purity (%) ([3]; 25° C., 60% RH, Month 6): 96.170%; Chiral purity (%) ([3]; 40° C., 75% RH, Day 7): 99.137%; Color and appearance ([3]; 40° C., 75% RH, Day 7): White solid; Crystalline form ([3]; 40° C., 75% RH, Day 7): Not changed; Main peak purity (%) ([3]; 40° C., 75% RH, Day 7): 96.906%; Chiral purity (%) ([3]; 40° C., 75% RH, Day 14): 99.104%; Color and appearance ([3]; 40° C., 75% RH, Day 14): White solid; Crystalline form ([3]; 40° C., 75% RH, Day 14): Not changed; Main peak purity (%) ([3]; 40° C., 75% RH, Day 14): 96.902%; Chiral purity (%) ([3]; 40° C., 75% RH, Month 1): 99.206%; Chloride ion content (%) ([3]; 40° C., 75% RH, Month 1): 5.44%; Color and appearance ([3]; 40° C., 75% RH, Month 1): White solid; Crystalline form ([3]; 40° C., 75% RH, Month 1): Not changed; Main peak purity (%) ([3]; 40° C., 75% RH, Month 1): 96.846%; Chiral purity (%) ([3]; 40° C., 75% RH, Month 2): 99.292%; Chloride ion content (%) ([3]; 40° C., 75% RH, Month 2): 5.86%; Color and appearance ([3]; 40° C., 75% RH, Month 2): White solid; Crystalline form ([3]; 40° C., 75% RH, Month 2): Not changed; Main peak purity (%) ([3]; 40° C., 75% RH, Month 2): 96.780%; Chiral purity (%) ([3]; 40° C., 75% RH, Month 3): 99.149%; Color and appearance ([3]; 40° C., 75% RH, Month 3): White solid; Crystalline form ([3]; 40° C., 75% RH, Month 3): Not changed; Main peak purity (%) ([3]; 40° C., 75% RH, Month 3): 96.664%; Chiral purity (%) ([3]; 40° C., 75% RH, Month 6): 98.972%; Chloride ion content (%) ([3]; 40° C., 75% RH, Month 6): 5.98%; Color and appearance ([3]; 40° C., 75% RH, Month 6): White solid; Crystalline form ([3]; 40° C., 75% RH, Month 6): Not changed; Main peak purity (%) ([3]; 40° C., 75% RH, Month 6): 95.990%; Chiral purity (%) ([3]; Initial, 0): 99.14%; Chloride ion content (%) ([3]; Initial, 0): 5.75%; Color and appearance ([3]; Initial, 0): White solid; Crystalline form ([3]; Initial, 0): Crystalline; Main peak purity (%) ([3]; Initial, 0): 96.925%; Stability (conclusion of long-term/accelerated study) ([3]; long term and acceleration, 6 months): good physical and chemical stability

From US20220411380A1, “ACID ADDITION SALT OF RORy REGULATOR” (JIANGSU HENGRUI MEDICINE CO., LTD., priority 2019, published 2022)
